Measured values reported in PubChem BioAssay AID248 (DTP/NCI, 2004).
“And” between values parts separate entries of the source, which are not always exact repeats. Equal values may be shown once. Inconclusive results and toxic doses are left out. No stated cut-off is given here; in the data, active means T/C of 150% or more; inactive means T/C below 125%.

Test system: L1210 leukemia ip in BDF1 mice, survival T/C
Experiment: NCI In Vivo Anticancer Drug Screen. Data for tumor model L1210 Leukemia (intraperitoneal) in B6D2F1 (BDF1) mice
Conditions: endpoint: mean survival time, higher = longer survival
Procedure, shortened: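 Value reflects the ratio of survival in compound-treated mice to survival in vehicle-treated controls, with both groups carrying the same transplanted tumor.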

[1] = dose: 100.0 mg/kg/injection, schedule: Q04DX003 (ip), vehicle: saline with Tween-80
[2] = dose: 200.0 mg/kg/injection, schedule: Q04DX003 (ip), vehicle: saline with Tween-80
[3] = dose: 400.0 mg/kg/injection, schedule: Q04DX003 (ip), vehicle: saline with Tween-80
[4] = dose: 25.0 mg/kg/injection, schedule: Q01DX009 (ip), vehicle: Klucel (hydroxypropylcellulose) (HPC)
[5] = dose: 50.0 mg/kg/injection, schedule: Q01DX009 (ip), vehicle: Klucel (hydroxypropylcellulose) (HPC)
[6] = dose: 100.0 mg/kg/injection, schedule: Q04DX003 (ip), vehicle: saline
[7] = dose: 200.0 mg/kg/injection, schedule: Q04DX003 (ip), vehicle: saline
[8] = dose: 400.0 mg/kg/injection, schedule: Q04DX003 (ip), vehicle: saline
[9] = dose: 100.0 mg/kg/injection, schedule: Q01DX009 (ip), vehicle: Klucel (hydroxypropylcellulose) (HPC)
[10] = dose: 400.0 mg/kg/injection, schedule: Q01DX009 (ip), vehicle: Klucel (hydroxypropylcellulose) (HPC)

Measured: T/C

CCCCCC(/C=N\NC(=O)CCCC(=O)N/N=C/C(=C/c1ccccc1)CCCCC)=C\c1ccccc1
inactive: dose: 50.0 mg/kg/injection, schedule: Q01DX001 (ip), vehicle: saline 89 % of control | dose: 100.0 mg/kg/injection, schedule: Q01DX001 (ip), vehicle: saline 95 % of control | dose: 200.0 mg/kg/injection, schedule: Q01DX001 (ip), vehicle: saline 97 % of control | dose: 400.0 mg/kg/injection, schedule: Q01DX001 (ip), vehicle: saline 89 % of control

O=C(O)c1ccccc1Nc1cccc(C(F)(F)F)c1
inactive: [1] 104 % of control | [2] 104 % of control | [3] 104 % of control

CC#N.[CH-]=C(C)C.[Cl][Pt][Cl]
inactive: dose: 6.25 mg/kg/injection, schedule: Q04DX003 (ip), vehicle: water 95 % of control | dose: 12.5 mg/kg/injection, schedule: Q04DX003 (ip), vehicle: water 97 % of control | dose: 25.0 mg/kg/injection, schedule: Q04DX003 (ip), vehicle: water 100 % of control | dose: 50.0 mg/kg/injection, schedule: Q04DX003 (ip), vehicle: water 101 % of control

O=S(=O)(c1ccc(Cl)cc1)C(F)F
inactive: dose: 12.5 mg/kg/injection, schedule: Q01DX009 (ip), vehicle: Klucel (hydroxypropylcellulose) (HPC) 89 % of control | dose: 12.5 mg/kg/injection, schedule: Q04DX003 (ip), vehicle: Klucel (hydroxypropylcellulose) (HPC) 91 % of control | [4] 93 % of control | dose: 25.0 mg/kg/injection, schedule: Q04DX003 (ip), vehicle: Klucel (hydroxypropylcellulose) (HPC) 89 % of control | [5] 91 % of control | dose: 50.0 mg/kg/injection, schedule: Q04DX003 (ip), vehicle: Klucel (hydroxypropylcellulose) (HPC) 97 % of control

COc1cc2ccc3c4cc5c(cc4c[n+](C)c3c2cc1OC)OCO5
inactive: dose: 10.0 mg/kg/injection, schedule: Q01DX009 (ip), vehicle: saline 124 % of control | dose: 20.0 mg/kg/injection, schedule: Q01DX009 (ip), vehicle: saline 112 % of control | dose: 40.0 mg/kg/injection, schedule: Q01DX009 (ip), vehicle: saline 122 % of control

C/C(CC(C)C)=N\NC(=O)Nc1ccc(Cl)c(Cl)c1
inactive: dose: 100.0 mg/kg/injection, schedule: Q01DX009 (ip), vehicle: saline with Tween-80 100 % of control and 112 % of control | dose: 100.0 mg/kg/injection, schedule: Q04DX002 (ip), vehicle: saline 94 % of control and 106 % of control | [6] 92 % of control | dose: 200.0 mg/kg/injection, schedule: Q01DX009 (ip), vehicle: saline with Tween-80 101 % of control and 112 % of control | dose: 200.0 mg/kg/injection, schedule: Q04DX002 (ip), vehicle: saline 93 % of control and 105 % of control | [7] 95 % of control | dose: 400.0 mg/kg/injection, schedule: Q01DX009 (ip), vehicle: saline with Tween-80 101 % of control and 106 % of control | dose: 400.0 mg/kg/injection, schedule: Q04DX002 (ip), vehicle: saline 95 % of control and 105 % of control | [8] 113 % of control

FC(F)(F)c1ccc2c(c1)N(CCCN1CCN(CCOc3ccccc3)CC1)c1ccccc1S2
inactive: dose: 6.25 mg/kg/injection, schedule: Q04DX003 (ip), vehicle: saline 105 % of control | dose: 8.2 mg/kg/injection, schedule: Q04DX003 (ip), vehicle: saline 97 % of control and 98 % of control | dose: 12.5 mg/kg/injection, schedule: Q04DX003 (ip), vehicle: saline 104 % of control | dose: 18.0 mg/kg/injection, schedule: Q04DX003 (ip), vehicle: saline 101 % of control and 102 % of control

CCCC(/C=N/Nc1ccc([N+](=O)[O-])cc1[N+](=O)[O-])=C\c1ccccc1
inactive: dose: 100.0 mg/kg/injection, schedule: Q01DX001 (ip), vehicle: saline with Tween-80 88 % of control | dose: 200.0 mg/kg/injection, schedule: Q01DX001 (ip), vehicle: saline with Tween-80 88 % of control

O=C(O)c1cc([N+](=O)[O-])ccc1F
inactive: dose: 75.0 mg/kg/injection, schedule: Q01DX001 (ip), vehicle: acetone 95 % of control | dose: 150.0 mg/kg/injection, schedule: Q01DX001 (ip), vehicle: acetone 103 % of control

Cc1ccc(C)c(C[P+](c2ccccc2)(c2ccccc2)c2ccccc2)c1
inactive: dose: 15.0 mg/kg/injection, schedule: Q01DX001 (ip), vehicle: saline 104 % of control

CC(=O)N(C)N=Nc1ccc(C)cc1
inactive: [4] 116 % of control | dose: 25.0 mg/kg/injection, schedule: Q04DX003 (ip), vehicle: other 101 % of control | [5] 110 % of control | dose: 50.0 mg/kg/injection, schedule: Q04DX003 (ip), vehicle: other 106 % of control | [9] 102 % of control and 108 % of control | dose: 100.0 mg/kg/injection, schedule: Q04DX003 (ip), vehicle: other 118 % of control | dose: 200.0 mg/kg/injection, schedule: Q04DX003 (ip), vehicle: other 123 % of control | [10] 105 % of control and 123 % of control

CCCC(C)C(=O)Nc1cccc(OC(=O)NC(C)C)c1 (stereo not drawn)
inactive: [1] 89 % of control | [2] 87 % of control | [3] 92 % of control

Cc1ccc(/C=C(\C#N)C(=O)O)cc1
inactive: dose: 12.5 mg/kg/injection, schedule: Q01DX009 (ip), vehicle: saline with Tween-80 94 % of control | dose: 25.0 mg/kg/injection, schedule: Q01DX009 (ip), vehicle: saline with Tween-80 94 % of control | dose: 50.0 mg/kg/injection, schedule: Q01DX009 (ip), vehicle: saline with Tween-80 100 % of control and 88 % of control

COC1/C=C/OC2(C)Oc3c(C)c(O)c4c(O)c(c(/C=N/N5C(C)CN(Cc6ccccc6)CC5C)c(O)c4c3C2=O)NC(=O)C(C)=C/C=C/C(C)C(O)C(C)C(O)C(C)C(OC(C)=O)C1C (stereo not drawn)
inactive: [5] 91 % of control | [9] 93 % of control

ClCCN(CCCl)c1ccc(C=Nc2ccc(-c3csc(-c4ccccc4)n3)c(Cl)c2)cc1
inactive: dose: 100.0 mg/kg/injection, schedule: Q01DX001 (sc), vehicle: carboxymethylcellulose (CMC) 94 % of control | dose: 200.0 mg/kg/injection, schedule: Q01DX001 (sc), vehicle: carboxymethylcellulose (CMC) 97 % of control | dose: 400.0 mg/kg/injection, schedule: Q01DX001 (sc), vehicle: carboxymethylcellulose (CMC) 103 % of control

Nc1c(Br)cc(Br)cc1Br
inactive: [9] 96 % of control | dose: 100.0 mg/kg/injection, schedule: Q04DX003 (ip), vehicle: Klucel (hydroxypropylcellulose) (HPC) 106 % of control | dose: 200.0 mg/kg/injection, schedule: Q01DX009 (ip), vehicle: Klucel (hydroxypropylcellulose) (HPC) 96 % of control | dose: 200.0 mg/kg/injection, schedule: Q04DX003 (ip), vehicle: Klucel (hydroxypropylcellulose) (HPC) 92 % of control | [10] 98 % of control | dose: 400.0 mg/kg/injection, schedule: Q04DX003 (ip), vehicle: Klucel (hydroxypropylcellulose) (HPC) 97 % of control

Cc1ccccc1C(=O)Nc1ccccc1
inactive: dose: 50.0 mg/kg/injection, schedule: Q01DX009 (ip), vehicle: saline 103 % of control | dose: 100.0 mg/kg/injection, schedule: Q01DX009 (ip), vehicle: saline 100 % of control | dose: 200.0 mg/kg/injection, schedule: Q01DX009 (ip), vehicle: saline 103 % of control

Cc1cc(=O)c2c(=O)[nH][nH]c2[nH]1
inactive: [6] 95 % of control | [7] 105 % of control | [8] 94 % of control

O=C1O/C(=C/c2ccccc2)C(O)=C1c1ccccc1
inactive: dose: 100.0 mg/kg/injection, schedule: Q04DX002 (ip), vehicle: saline with Tween-80 93 % of control | dose: 200.0 mg/kg/injection, schedule: Q04DX002 (ip), vehicle: saline with Tween-80 103 % of control

CC(=O)Nc1ccc(Cl)cc1C(=O)c1ccccc1
inactive: dose: 100.0 mg/kg/injection, schedule: Q04DX002 (ip), vehicle: Klucel (hydroxypropylcellulose) (HPC) 96 % of control | dose: 200.0 mg/kg/injection, schedule: Q04DX002 (ip), vehicle: Klucel (hydroxypropylcellulose) (HPC) 108 % of control | dose: 400.0 mg/kg/injection, schedule: Q04DX002 (ip), vehicle: Klucel (hydroxypropylcellulose) (HPC) 96 % of control

N#Cc1ccc[n+](CCc2c[nH]c3ccccc23)c1
inactive: dose: 75.0 mg/kg/injection, schedule: Q01DX001 (ip), vehicle: saline 102 % of control

O=C(NC1CCCCC1)c1ccc([N+](=O)[O-])cc1
inactive: dose: 100.0 mg/kg/injection, schedule: Q01DX001 (ip), vehicle: Klucel (hydroxypropylcellulose) (HPC) 104 % of control | dose: 200.0 mg/kg/injection, schedule: Q01DX001 (ip), vehicle: Klucel (hydroxypropylcellulose) (HPC) 101 % of control | dose: 400.0 mg/kg/injection, schedule: Q01DX001 (ip), vehicle: Klucel (hydroxypropylcellulose) (HPC) 101 % of control
